# In US7022680B2, “Inhibitors of ADP-ribosyl transferases, cyclases, and hydrolases” (Albert Einstein College of Medicine of Yeshiva University, priority 2002, dated 2006):
# Several values for one entry are separate records, joined by “and”; a condition that tells them apart may be missing. Equal values may be shown once.
# How the values were obtained:
# human CD38 [1] = target: T1, human CD38 (Homo sapiens, UniProt P28907); test: Competitive and slow-onset inhibition of CD38-catalyzed conversion of NGD+ to cGDPR (295 nm absorbance); format: biochemical; set-up: The soluble domain of human CD38 catalyzes the conversion of NAD^+ to cyclic-ADP-ribose; conditions: even at millimolar concentrations (data not shown)
# T1 sequence (P28907 43-300 limits assumed): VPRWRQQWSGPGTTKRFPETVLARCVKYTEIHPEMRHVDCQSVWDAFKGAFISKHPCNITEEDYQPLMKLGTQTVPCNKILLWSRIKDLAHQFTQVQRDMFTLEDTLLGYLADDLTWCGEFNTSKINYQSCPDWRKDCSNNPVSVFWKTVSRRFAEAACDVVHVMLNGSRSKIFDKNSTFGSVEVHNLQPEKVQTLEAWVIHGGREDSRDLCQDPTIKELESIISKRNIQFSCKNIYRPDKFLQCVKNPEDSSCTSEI
# Protocol: Determination of Ki and kon by competitive method. To 1 mL solutions of 50 mM potassium phosphate pH 7.2 and 100 μM NGD^+ containing, 50, 25, 12.5, and 6.25 and 0 μM inhibitor 1 was added 2 μL of 7 μM CD38. Reaction progress upon initiation by enzyme addition was monitored by measurement of 295 nm absorbance. The initial slopes were used to determine the Ki value, and all points of the experiment were fit to the equation A(t)=vt+(b−v)(1−exp(−kt))/k+A0 where k is the observed rate constant, b is the initial rate, v is the final rate and A0 is the initial absorbance was used to evaluate kon.
# Determination of Competitive Inhibition by Initial Rates: The inhibitors 1–3 were evaluated for inhibition of CD38 enzymatic activity using a spectrophotometric assay. CD38 catalyzes the conversion of NGD^+ to cyclic-GDP ribose (cGDPR, Scheme 4) and product formation can be monitored by 295 nm absorbance measurement. […] A similar reaction containing 40 μM NGD^+ at several concentrations of 2 was also performed (FIG. 3).
# Slow Phase Inhibition. […] This slow phase was not due to substrate depletion and was attributable to a kinetic process leading to progressive inhibition of the enzyme. The “slow-onset” absorbance curves could be fit using the equation At=vit+(vi−vf)(1−exp(−kt))/k+A0 where At is absorbance, vi is initial velocity, vf is final velocity, t is time in s, k is the rate of the slow onset process and A0 is absorbance of the sample at initial time. These fits are shown by the solid lines in FIG. 2 and FIG. 3. The rate constant for the slow phase could be obtained from the average value of k determined from the separate fits. The value of k for 1 was determined to be 0.0042±0.001 s^−1 and the value of k for 2 was determined to be 0.0083±0.002 s^−1. The parameter k is defined as kon in Scheme 5. [drawing 19]
# CD38 = target: T2, CD38 (Homo sapiens, UniProt P28907); conditions: 37° C.; cited from earlier work
# T2 sequence (P28907 1-300): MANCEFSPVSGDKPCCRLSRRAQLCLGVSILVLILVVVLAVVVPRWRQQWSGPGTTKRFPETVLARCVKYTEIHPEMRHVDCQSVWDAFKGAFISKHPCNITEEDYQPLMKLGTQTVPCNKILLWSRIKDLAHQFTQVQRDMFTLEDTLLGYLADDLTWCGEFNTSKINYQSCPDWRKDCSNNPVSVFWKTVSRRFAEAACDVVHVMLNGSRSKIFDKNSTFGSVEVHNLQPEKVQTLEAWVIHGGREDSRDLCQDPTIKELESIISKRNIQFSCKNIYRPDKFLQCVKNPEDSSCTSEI
# human CD38 [2] = target: T1, human CD38; test: Radiochemical labeling of CD38 by [2'-3H] inhibitor (gel filtration, scintillation counting); format: binding; set-up: The soluble domain of human CD38 catalyzes the conversion of NAD^+ to cyclic-ADP-ribose; conditions: 9 μM inhibitor, 1.2 μM CD38 monomer, pH 7.5, 25° C.
# Protocol: Radiochemical measurement of inhibitor binding. […] Inhibitor at 9 μM with specific radioactivity of 866 cpm/nmol, was incubated with 1.2 μM CD38 (monomer) in 1 mL 50 mM potassium phosphate (pH 7.5). The reactions were started by enzyme addition and quenched by freezing with a dry ice/acetone bath at 30, 60 90, 120, 250, 500, and 1000 s. Cooled (0° C.) gel filtration columns were used to separate protein with cooled (0° C.) 10 mM potassium phosphate as eluant. The frozen fraction were quickly thawed, applied to these columns and fractions collected in 1 mL volumes over the course of several minutes. Scintillation fluid (9 mL) was then added to each 1 mL fraction and samples counted. […] The observed radioactivity was fit using the equation A(t)=A0(1−exp(−kt))+B. where A0 is activity at reaction completion, k is the observed pseudo-first order rate constant and B is the activity of the blank.
# Titration of Enzyme with [2′-^3H]Inhibitor. CD38 inactivation was accomplished using a radiolabeled inhibitor to assess inhibitor interactions with the enzyme independent from inhibition of the catalytic activity. This method allows the determination of the stoichiometry of covalent labeling, and detects cooperativity at multiple sites. […] (FIG. 8) within reasonable agreement with the rate constant for inactivation in kinetic assays of inhibition (kon=0.0042 s^−1 at 19° C.). […]
# [3] = Solution hydrolysis of the inhibitor; format: physicochemical; conditions: 10 mM potassium phosphate, pH 6.5, 25° C.
# Excerpt: Without being bound to any particular mechanism, it is believed that the electron-contributing moiety on A stabilizes the compounds of the invention such that they are less susceptible to hydrolysis from the rest of the compound. For example, the compound β-1′-5-methyl-nicotinamide-2′-deoxyribose (established as an effective inhibitor of CD38 in the Example) was compared with β-1′-nicotinamide-2′-deoxyribose in its ability to resist solution hydrolysis. […] This difference in chemical stability means that β-1′-nicotinamide-2′-deoxyribose is 50% depleted from solution in 2 hours, whereas β-1′-5-methyl-nicotinamide-2′-deoxyribose is not hydrolyzed by 50% until 12 hours. This improved chemical stability improves the value of the compound, since it is available for action for longer periods of time in biological systems due to resistance to hydrolytic breakdown.
# human CD38 [4] = target: T1, human CD38; test: Off-rate / recovery of inhibited CD38 in excess NGD+; format: biochemical; set-up: The soluble domain of human CD38 catalyzes the conversion of NAD^+ to cyclic-ADP-ribose; conditions: inhibited CD38 added to excess NGD+, 19° C.; for koff: read-out: koff, rate constant of recovery from inhibition
# Protocol: Off-Rate Measurement. 500 nM CD38 in 50 mM potassium phosphate pH 7.2 was incubated with 15 μM inhibitor for 30 min at room temperature. 5 μL of the enzyme inhibitor solution was added to a cuvette containing 1 mL reaction of 50 mM potassium phosphate pH 7.5 containing 300 μM NGD^+ pre-chilled to 19° C. Production of […] was determined by monitoring 295 nm absorbance. The absorbance was fit to the equation A(t)=vt+(b−v)(1−exp(−kt))/k+A0 where A(t) is the absorbance, k is the rate constant of recovery, b is the initial rate, v is the final rate and A0 is the initial absorbance. A control lacking inhibitor but in all other respects identical was also run.
# Recovery from Inhibition. […] The inhibitor off-rate provides the final parameter in the equation koff/kon*Ki=Ki(total) which is valid for the kinetic scheme of slow-onset inhibition shown in Scheme 5. This rate was obtained by a recovery protocol in which inhibited CD38 enzyme (by either 1 or 2) was added to a 200 μM solution of NGD^+. The solution 295 nm absorbance is monitored spectrophotometrically to assay conversion of NGD^+ to cGDPR as a consequence of regain of CD38 catlytic activity. […] The absorbance curves with the same equation used for slow-onset: At=vit+(vi−vf)(1−exp(−kt))/k+A0 where At is absorbance, vi is initial velocity, vf is final velocity, t is time in s, k is the rate of the recovery rate constant and A0 is the absorbance of the sample at initial time. The rate constant for the recovery phase was obtained from the average value of k determined from the separate fits. The value of koff for 1 was determined to be 1.5×10^−5 s^−1 and for 2 was determined to be 2.5×10^−5 S^−1.
# human CD38 [5] = target: T1, human CD38; test: CD38-catalyzed base exchange of 2 to 1 with nicotinamide, HPLC; format: biochemical; set-up: The soluble domain of human CD38 catalyzes the conversion of NAD^+ to cyclic-ADP-ribose; conditions: 75 μM 2, 1 μM CD38, nicotinamide, 19° C.
# Protocol: Base-exchange reaction. […] These reactions were run separately in autosampler tubes held at 19° C. in a temperature regulated autosampler and assayed by multiinjection HPLC using 5 mM K2PO4H pH 5.0 and 2.5% MeOH as eluant. The quantity of 2 reacted and the quantity of 1 formed versus time was determined by integrations of the peaks for 1 and 2 with comparison to standards.
# human CD38 [6] = target: T1, human CD38; conditions: CD38 preincubated with inhibitor 2; saturating nicotinamide
# Protocol: 10 mL CD38 (1 μM) in K2PO4H was incubated with 2 (10 μM) for 30 minutes at room temperature and subsequently placed on ice. […] To a two syringe Applied Photophysics spectrophotometer in fluorescence mode was added inhibited enzyme to one syringe and NGD^+ solution to the other. Fluorescence was used to monitor cGDPR formation and the total fluorescence curves fit using the activity recovery equation F(t)=vt+(b−v) (1−exp(−kt))/k+F0 where k is the observed rate constant, b is the initial rate, v is the final rate and F0 is the initial absorbance.
# A stopped flow, two syringe fitted spectrophotometer was used to perform the experiments. The fluorescence of cGDPR was measured as a function of time to generate curves that contain an exponential and a linear phase prior to substrate exhaustion. These curves were fit to the equation Ft=vft+(vi−vf)(1−exp (−kt))/k+F0 as previously defined.
smiles,measurement,setting,value
"NC(=O)c1ccc[n+](C2CC(O)C(CO)O2)c1 (single isomer, unassigned) [α isomer of 1]",inhibition of CD38 conversion of NGD+ to cGDPR,human CD38 [1],did not inhibit
"Cc1cc(C(N)=O)c[n+](C2CC(O)C(CO)O2)c1 (single isomer, unassigned) [α isomer of 2]",inhibition of CD38 conversion of NGD+ to cGDPR,human CD38 [1],did not inhibit
NC(=O)c1ccc[n+]([C@@H]2O[C@H](COP(=O)(O)O)[C@@H](O)[C@H]2O)c1 [NMN^+],"ratio of the rates of turnover of CD38 covalent intermediates, NMN+ versus ara-F-NMN+",CD38,~10^7
"[3H]C1[C@H]([n+]2cccc(C(N)=O)c2)O[C@H](CO)[C@H]1O (stereo partly shown) [[2′-^3H]-1, [2′-^3H]Nicotinamide deoxyriboside]",rate constant of radiochemical labeling of CD38 (kchem),human CD38 [2],0.01 s⁻¹
"NC(=O)c1ccc[n+]([C@H]2C[C@H](O)[C@@H](CO)O2)c1 [inhibitor 1, nicotinamide-2′-deoxyriboside]",time until 50% depleted from solution by hydrolysis,[3],2 h
same,"koff, rate constant of recovery from inhibition",human CD38 [4],1.5e-05 s⁻¹
same,koff,human CD38 [4],~2e-05 s⁻¹
"Cc1cc(C(N)=O)c[n+]([C@H]2C[C@H](O)[C@@H](CO)O2)c1 [inhibitor 2, 5-methyl-nicotinamide-2′-deoxyriboside]",time until 50% depleted from solution by hydrolysis,[3],12 h
same,"koff, rate constant of recovery from inhibition",human CD38 [4],2.5e-05 s⁻¹
same,koff,human CD38 [4],~2e-05 s⁻¹
same,kcat of base exchange (2 to 1),human CD38 [5],0.007 s⁻¹
"OC[C@H]1O[C@@H]([n+]2ccccc2)C[C@@H]1O [inhibitor 3, pyridyl-2′-deoxyriboside]",inhibition of CD38 conversion of NGD+ to cGDPR,human CD38 [1],did not inhibit
NC(=O)c1cccnc1 [nicotinamide],maximum rate of rescue (kbase),human CD38 [6],0.023 s⁻¹ and 0.024 s⁻¹
